What was measured:
[1] = system: progesterone and estrone release in placental explants; assay: Steroid (progesterone, estrone) release in placental explants, LC-MS/MS of culture medium; type: cell-based, human; conditions: placental explants, 1, 10 and 100 µM, after 24 h
Procedure: (§1) Term placentas, obtained from consenting women following uncomplicated pregnancies and delivered vaginally or by caesarean section, were used for all experiments. Approval of the Regional Committee on Research involving Human Subjects was obtained (File 2014-1397). Within 60 min after delivery, 1 cm^3 villous tissue samples were excised at random areas midway between the umbilical cord and distal edge of the placenta. To remove maternal blood, samples were carefully rinsed in sterile Dulbecco’s phosphate-buffered saline supplemented with calcium chloride and magnesium chloride (Sigma-Aldrich, St. Louis, MO, USA) which was kept at 37 °C. The villous tissue was cut into small pieces weighing approximately 5 mg, after which 4–6 pieces of tissue were cultured together in individual wells of a 6-well plate. The explants were cultured in 1.5 ml of RPMI-1640 culture medium (Gibco, USA) with 15% heat-inactivated fetal bovine serum, 1% penicillin streptomycin, 1% gentamicin, and 1% amphotericin B (Life Technologies, USA). Placental explant cultures were kept for 7 days at 37 °C in a humidified gas mixture of 5% CO2 and 95% air. The culture medium was renewed every 24 h.
Treatment with TKIs or cytostatic drugs was started at day four of culture to allow for the syncytiotrophoblasts to regenerate (Siman et al. [2001]). Explants were then incubated for 72 h with 1, 10 or 100 µM of all TKIs or cytostatic drugs mentioned above. […] For cisplatin and carboplatin, culture medium was used as a solvent. Culture medium was replaced every 24 h with new medium containing the original concentration of the drug. Supernatant was collected each day and stored at − 20 °C for hormone quantification.
Progesterone and estrone concentrations in culture medium were determined by LC–MS/MS analysis using an Acquity UPLC (Waters, Milford, MA, USA) equipped with a C18 UPLC column (Acquity UPLC BEH C18, 2.1 × 50 mm, Milford, MA, USA, Waters) coupled to a Xevo TQ-S (Waters) triple quadrupole mass spectrometer. Progesterone-D9 was used as internal standard and calibration curves were made in the matrix. To precipitate proteins, methanol containing the internal standard was added to culture medium samples in a ratio 3:1 (MeOH:medium). Following subsequent centrifugation (13,000g for 3 min), 1 μl of the clear supernatant was injected into the LC–MS to quantify progesterone and estrone. Solvent A consisted of 0.2 mM NH4F in water and solvent B consisted of 0.2 mM NH4F in Acetonitrile:Methanol in a ratio of 75:25%. Separation was performed at a flow rate of 350 µl/min under the following gradient conditions: 0 min 60% eluent A, 3.0 min 0% eluent A, 4 min 0% eluent A, 5 min 60% eluent A. The effluent from the UPLC was passed directly into the electrospray ion source. Positive electrospray ionization was achieved using nitrogen as a desolation gas with ionization voltage at 600 V. The source temperature was set at 500 °C and argon was used as collision gas. The following SRM transitions were used: m/z 315.10 (parent ion) to m/z 69.9 and m/z 108.9 (both product ions) for progesterone, m/z 269.0 (parent ion) to m/z 144.9 and 158.9 (product ions) for estrone, and m/z 324.2 (parent ion) to m/z 99.9 and m/z 112.9 (product ions) for the internal standard d9-progesterone. We also attempted to quantify estradiol and estriol levels in the culture medium of both explants and cells, but these were below the detection limit.
Construction of graphs and data analysis were performed using Graphpad Prism version 8.4.2. MTT conversion and progesterone and estrone release in placental explants were normalized to tissue wet weight. To compare the effects on tissue viability and cell viability, the data were normalized to control conditions and mean differences were tested using an unpaired t test, a one-way ANOVA, or a two-way repeated measures ANOVA. […]

[2] = system: BeWo cells; design: method as in Soininen et al. [2015]; conditions: after 4 h of exposure, ref Soininen et al. [2015], read-out: IC50 cell viability; cited from earlier work
[3] = system: JEG-3, BeWo, and syncytialised BeWo cells; assay: MTT assay, cell viability in all three trophoblast cell types; type: cell-based, human
Procedure: Two human choriocarcinoma-derived placental cell lines were used: JEG3 and BeWo (ATCC catalog numbers HTB-36 and CCL-98, respectively). JEG3 cells were cultured in DMEM and Bewo cells in Ham’s F-12 K medium, supplemented with 10% fetal calf serum and 1% penicillin and streptomycin under a humidified 5% CO2/95% air atmosphere at 37 °C. Cells were passaged (JEG3: 1:10 twice a week; BeWo: 1:3 once a week) after trypsinization with 0.05% Trypsin–EDTA when cells reached approximately 80% confluency. For BeWo cells, the medium was renewed 3 times a week. To create syncytialised BeWo cells, regular BeWo cells were treated with 50 μM forskolin (Sigma-Aldrich, St. Louis, MO, USA) in 0.1% DMSO, to initiate syncytialisation. As forskolin increases the intracellular cAMP levels, it activates protein kinase A after which syncytialisation and fusion of trophoblasts occurs (Orendi et al. [2010]).
The cells were seeded in 96-well culture plates at a cell density of 1 × 10^4 cells/well and cultured for 24 h at 37 °C in a humidified atmosphere with 5% CO2 to allow for attachment. Subsequently, the cells were exposed to the TKIs and cytostatic drugs in concentrations ranging from 100 pM to 100 µM (triplicate). […] This is a minimum percentage DMSO, but required as cells required co-incubation with forskolin to syncytialise. Crizotinib 100 μM was used as positive control. After attachment, cells were incubated with the compounds for 48 h, after which the medium was removed and the cells were exposed to […] diluted in medium. After 3 h of incubation with MTT, the formazan crystals formed were solubilized in 50 μL DMSO. The absorbance of formazan was measured at 540 nm by a Biorad Multiwell Plate reader.

[4] = MTT assay in placental explants (tissue viability); type: cell-based, human; conditions: female, human, term placental villous tissue explants, 72 h exposure
Procedure: as §1
Treatment with TKIs or cytostatic drugs was started at day four of culture to allow for the syncytiotrophoblasts to regenerate (Siman et al. [2001]). Explants were then incubated for 72 h with 1, 10 or 100 µM of all TKIs or cytostatic drugs mentioned above. […] Culture medium was replaced every 24 h with new medium containing the original concentration of the drug. Supernatant was collected each day and stored at − 20 °C for hormone quantification.
To evaluate tissue and cell viability, after 72 h of drug exposure, tissue explants were incubated for 4 h at 37 °C with 1 mM 3-(4,5-dimethylthiazol-2-yl)-[…] (MTT) in RPMI. After incubation, the medium was removed, the tissue in each well was weighed, and the explants were subsequently placed in 500 µL DMSO for 10 min to dissolve the formazan formed. After 10 min, the DMSO was transferred to a 96-well plate and absorbance was measured at 540 nm using a Biorad Multiwell Plate reader.
Construction of graphs and data analysis were performed using Graphpad Prism version 8.4.2. MTT conversion and progesterone and estrone release in placental explants were normalized to tissue wet weight. To compare the effects on tissue viability and cell viability, the data were normalized to control conditions and mean differences were tested using an unpaired t test, a one-way ANOVA, or a two-way repeated measures ANOVA. The change in progesterone release rate as compared to the baseline (at 0 h) was calculated for each well separately, after which data were normalized to control conditions. One-way ANOVA was used to assess effects at the 72 h time point only. The Bonferroni post hoc test was applied to compare treatment conditions with controls. Data are described as mean ± SD in Figs. 2 and 3 and as mean ± SEM in all other figures where comparisons of means between groups were made. The mean and SD or SEM were calculated from all individual results (three experiments performed in duplicate or triplicate wells, n = 6 or n = 9).

[5] = design: method as in Berveiller and Mir [2012]; Soininen et al. [2015]; conditions: ref Berveiller and Mir [2012]; Soininen et al. [2015]; cited from earlier work

## COc1cccc2c1C(=O)c1c(O)c3c(c(O)c1C2=O)C[C@@](O)(C(=O)CO)C[C@@H]3O[C@H]1C[C@H](N)[C@H](O)[C@H](C)O1 [doxorubicin]
[1]
  progesterone production (in words): induced progesterone production
[2]
  IC50: 600 nM
[3]; all cell types (48 h) versus placental explants (72 h)
  potency on viability in cells relative to explants (times more potent): approximately 10 times
[3]; all cell types, 1 µM, 48 h exposure
  effect on viability (in words): fully inhibited viability in all cell types
[4]; 1 µM, read-out: viability in explants, % of control values
  viability at 72 h, 1 µM: 83 ± 7%
[4]; 100 µM, mean ± SEM, read-out: tissue viability, % of control
  viability at 72 h, 100 µM: 14 ± 2%
[5]
  uptake in ex vivo perfused placental tissue, % of initial maternal concentrations: 38–70%
